# Measurements from paper PMC3392440 (2012).
# What was measured:
# TlpB [1] = target: TlpB (Helicobacter pylori, UniProt B6JPK4); assay: crystal structure; assay type: binding
# TlpB [2] = target: TlpB (Helicobacter pylori, UniProt B6JPK4, Y137F); assay: colorimetric assay of co-purified urea; assay type: binding
# [3] = target: TlpB periplasmic domain, residues 33-211 (TlpBpp), H. pylori strain SS1 (Helicobacter pylori strain SS1); assay: crystal structure
compound,measurement,setting,value
CC(N)=O [acetamide],crystal structure (1.40 Å); CD thermal melt,TlpB [1],TlpBpp with acetamide bound is 3UB7
NC(N)=O [urea],% bound urea,TlpB [2],11 % bound urea
"TlpB periplasmic domain, residues 33-211 (TlpBpp), H. pylori strain SS1 (domain or fragment)",stoichiometry N,[3],2
